This is an account of results in PMC7901646, “Pyrrolo[2′,3′:3,4]cyclohepta[1,2-d][1,2]oxazoles, a New Class of Antimitotic Agents Active against Multiple Malignant Cell Types” (Journal of Medicinal Chemistry, 2020).

For one assay, the target named is tubulin colchicine site (Bos taurus, UniProt P81947+Q6B856). The assay can be described thus: Inhibition of [3H]colchicine binding to tubulin. The conditions noted are these: read-out: inhibition of colchicine binding % inhibition ± SD.
In assay [1] the test system is VL51 idelalisib-resistant. In words: MTT cell proliferation, lymphoma. The conditions noted are these: Homo sapiens, 72 h, of untreated cells, read-out: Proliferating cells (%). It counts as cell-based. How it is done:
(§1) All compounds were further tested at the concentration of 1 μM on four cell lines derived from distinct lymphoma histotypes, plus two with secondary resistance to the PI3Kδ inhibitor idelalisib[51] or to the BTK inhibitor ibrutinib.[52] […] For comparison, the same experiments were conducted using compound 3, but the response to it was minimal, and thus it was not considered further.
(§2) Established human cell lines derived from germinal center B-cell (GCB) (SU-DHL-10), activated B-cell (ABC) (HBL1) diffuse large B-cell lymphoma (DLBCL), mantle cell lymphoma (MCL) (MINO), splenic marginal zone lymphoma (SMZL) (parental VL51, VL51 idelalisib resistant clone, VL51 ibrutinib resistant clone) were cultured in culture RPMI-1640 media supplemented with fetal bovine serum (10%), penicillin–streptomycin–neomycin (∼5,000 units of penicillin, 5 mg of streptomycinm and 10 mg of neomycin/mL, Sigma), and L-glutamine (1%). Vincristine sulfate was purchased from Sigma-Aldrich. Cell line identities were confirmed by CellCheck test (IDEXX, BioResearch, Ludwigsburg, Germany). All compounds were dissolved in dimethyl sulfoxide to obtain a stock concentration of 10 mM.
(§3) The antiproliferative activity of all compounds was assessed by using the 3-(4.5-dimethylthiazolyl-2)-2,5-diphenyltetrazolium bromide (MTT) test. Cells were seeded in 96-well plates (nontissue culture treated) at a density of 1 × 10^5 cells/mL and treated with a single concentration of 1 μM for 72 h. […] In this case, cells were treated in triplicate with serially diluted compounds in the appropriate tissue culture medium at a range of 40–10 000 nM. Cells were incubated for 72 h at 37 °C, 5% CO2. Wells containing medium only were included on each plate and served as blanks for absorbance readings. MTT (Sigma, Buchs, Switzerland) was prepared as a 5 mg/mL stock solution in phosphate buffered saline (PBS) and filter-sterilized. MTT solution (22 μL) was added to each well, and tissue culture plates were incubated at 37 °C for 4 h. Cells were then lysed with 25% sodium dodecyl sulfate lysis buffer, and absorbance was read at 570 nm using a Beckman Coulter-AD340 plate reader.

The subject of the next assay is MINO (MCL). In words: MTT cell proliferation, lymphoma. It is filed as cell-based. To be noted: Homo sapiens, 72 h; for activity at 1 µM: of untreated cells, read-out: Proliferating cells (%). The protocol:
as §1, §2, §3

The test system of the next assay is VL51 (MZL). In words: MTT cell proliferation, lymphoma. It counts as cell-based. The conditions noted are these: Homo sapiens, 72 h; for activity at 1 µM: of untreated cells, read-out: Proliferating cells (%). The protocol: as §1, §2, §3
For another assay, the system named is VL51 ibrutinib-resistant. The assay can be described thus: MTT cell proliferation, lymphoma. It is filed as cell-based. The conditions noted are these: Homo sapiens, 72 h, of untreated cells, read-out: Proliferating cells (%). How it is done: as §1, §2, §3
The next assay relates to HBL1 (ABC DLBCL). The assay can be described thus: MTT cell proliferation, lymphoma. It is filed as cell-based. To be noted: Homo sapiens, 72 h; for activity at 1 µM: of untreated cells, read-out: Proliferating cells (%). The protocol: as §1, §2, §3
The test system of a further assay is SU-DHL-10 (GCB DLBCL). In words: MTT cell proliferation, lymphoma. It counts as cell-based. To be noted: Homo sapiens, SU-DHL10, 72 h; for activity at 1 µM: of untreated cells, read-out: Proliferating cells (%). How it is done:
as §1, §2, §3

The next assay concerns six lymphoma cell lines. In words: MTT cell proliferation, all lymphoma cell lines. It is filed as cell-based, human. To be noted: 1 μM, 72 h, of the untreated cells. How it is done:
as §1
Established human cell lines derived from germinal center B-cell (GCB) (SU-DHL-10), activated B-cell (ABC) (HBL1) diffuse large B-cell lymphoma (DLBCL), mantle cell lymphoma (MCL) (MINO), splenic marginal zone lymphoma (SMZL) (parental VL51, VL51 idelalisib resistant clone, VL51 ibrutinib resistant clone) were cultured in culture RPMI-1640 media supplemented with fetal bovine serum (10%), penicillin–streptomycin–neomycin (∼5,000 units of penicillin, 5 mg of streptomycinm and 10 mg of neomycin/mL, Sigma), and L-glutamine (1%). Vincristine sulfate was purchased from Sigma-Aldrich. […]
The antiproliferative activity of all compounds was assessed by using the 3-(4.5-dimethylthiazolyl-2)-2,5-diphenyltetrazolium bromide (MTT) test. […] Wells containing medium only were included on each plate and served as blanks for absorbance readings. […] Cells were then lysed with 25% sodium dodecyl sulfate lysis buffer, and absorbance was read at 570 nm using a Beckman Coulter-AD340 plate reader.

Assay [2] deals with NCI-60 panel of human cancer cell lines. Further details: method as in earlier work. To be noted: full NCI panel, ref 42−45, cited from earlier work.
For another assay, the target named is bovine brain tubulin (Bos taurus, UniProt P81947+Q6B856). The assay can be described thus: Inhibition of tubulin assembly (turbidimetry). It counts as biochemical. To be noted: 9 μM (0.9 mg/mL) tubulin, 20 min at 30 °C; read-out: inhibition of tubulin assembly IC50 ± SD.
The next assay relates to tumor growth. The arrangement: method as in PMID 17915194, PMID 21215627. The conditions noted are these: in vivo models, dose of 50–100 mg/kg; cited from earlier work.
In assay [3] the test system is human peripheral blood lymphocytes not stimulated with PHA. The assay can be described thus: Cytotoxicity in resting PBLs (MTT). It is filed as cell-based. The conditions noted are these: Lymphocyte, 72 h, mean ± SEM, three experiments, read-out: GI50 PBLresting. The protocol: (§4) PBLs were obtained from human peripheral blood (leucocyte rich plasma-buffy coats) from healthy volunteers using the Lymphoprep (Fresenius KABI Norge AS) gradient density centrifugation.
(§5) After extensive washing, cells were resuspended (1.0 × 10^6 cells/mL) in RPMI-1640 with 10% fetal bovine serum and incubated overnight. For cytotoxicity evaluations in proliferating PBL cultures, nonadherent cells were resuspended at 5 × 10^5 cells/mL in growth medium, containing 2.5 μg/mL PHA (Irvine Scientific). Different concentrations of the test compounds were added, and viability was determined 72 h later by the MTT test. For cytotoxicity evaluations in resting PBL cultures, nonadherent cells were resuspended (5 × 10^5 cells/mL) and treated for 72 h with the test compounds.

Assay [4] deals with human peripheral blood lymphocytes stimulated with PHA. The assay can be described thus: Cytotoxicity in PHA-stimulated PBLs (MTT). It counts as cell-based. To be noted: Lymphocyte, 72 h, mean ± SEM, three experiments, read-out: GI50 PBLPHA. The protocol: as §4, §5

Sequence of tubulin colchicine site (Q6B856 whole entry): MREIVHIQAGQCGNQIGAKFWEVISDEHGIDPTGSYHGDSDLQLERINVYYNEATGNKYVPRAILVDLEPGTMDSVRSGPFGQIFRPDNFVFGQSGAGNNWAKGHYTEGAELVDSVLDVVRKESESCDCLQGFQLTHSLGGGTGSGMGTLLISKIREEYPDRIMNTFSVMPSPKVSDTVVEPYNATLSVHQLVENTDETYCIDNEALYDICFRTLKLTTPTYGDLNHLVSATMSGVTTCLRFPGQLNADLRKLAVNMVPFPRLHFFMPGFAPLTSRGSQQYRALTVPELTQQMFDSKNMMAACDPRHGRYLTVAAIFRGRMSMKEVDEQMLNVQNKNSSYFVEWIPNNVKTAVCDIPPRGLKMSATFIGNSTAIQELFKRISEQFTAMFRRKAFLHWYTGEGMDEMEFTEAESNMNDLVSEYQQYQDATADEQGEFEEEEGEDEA
Sequence of tubulin colchicine site (P81947 whole entry): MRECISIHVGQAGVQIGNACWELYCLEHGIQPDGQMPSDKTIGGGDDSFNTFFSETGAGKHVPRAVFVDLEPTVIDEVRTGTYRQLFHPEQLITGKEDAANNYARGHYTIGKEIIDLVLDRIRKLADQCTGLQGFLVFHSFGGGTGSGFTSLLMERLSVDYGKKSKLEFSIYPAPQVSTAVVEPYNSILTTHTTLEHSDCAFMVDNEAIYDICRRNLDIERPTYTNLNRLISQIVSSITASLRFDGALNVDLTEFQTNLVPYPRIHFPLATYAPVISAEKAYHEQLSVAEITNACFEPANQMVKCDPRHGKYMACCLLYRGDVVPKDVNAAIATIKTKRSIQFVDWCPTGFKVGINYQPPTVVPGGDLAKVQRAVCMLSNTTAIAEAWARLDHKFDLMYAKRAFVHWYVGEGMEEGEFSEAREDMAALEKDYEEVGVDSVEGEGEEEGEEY
Sequence of bovine brain tubulin (Q6B856 whole entry): as the sequence (Q6B856 whole entry) above
Sequence of bovine brain tubulin (P81947 whole entry): as the sequence (P81947 whole entry) above
Procedure for tubulin colchicine site: Reaction mixtures in the assembly assay contained 9 μM (0.9 mg/mL) tubulin in the assembly assay, and in the colchicine assay they contained 0.5 μM tubulin, 5.0 μM [^3H]colchicine, and 5.0 μM inhibitor.
Analysis of effects on tubulin polymerization was performed by turbidimetry at 350 nm in recording spectrophotometers equipped with electronic temperature controllers as described in detail elsewhere.[71] […] The binding of [^3H]colchicine to tubulin was perfomed as described in detail previously[72] except that the tubulin concentration was reduced from 0.1 mg/mL to 0.05 mg/mL and only one, instead of two, DEAE-cellulose filter was used for each reaction mixture.

The inhibition is the change of the read-out against control, counted positive when it falls. For `COc1ccc(/C=C\c2cc(OC)c(OC)c(OC)c2)cc1O` [CA-4, combretastatin A-4, reference compound], at tubulin colchicine site, the inhibition at 5 µM amounted to 97 ± 0.9%.
What is called GI50 is the concentration at which growth is held to half of that of the control. The IC50 is the concentration at which inhibition is half-maximal. For `CCOC(=O)c1cc2c(n1Cc1cc(OC)cc(OC)c1)-c1oncc1CC2` [Compound 3, ethyl 8-(3,5-dimethoxybenzyl)-5,8-dihydro-4H-[1,2]oxazolo[4,5-g]indole-7-carboxylate, reference compound], the activity at 1 µM amounted to 107% in [1]; 94.5% with MINO (MCL); 93.5% in the assay on VL51 (MZL); 123% in the assay on VL51 ibrutinib-resistant; 95.6% with HBL1 (ABC DLBCL); 80% in the assay on SU-DHL-10 (GCB DLBCL). Also, in the assay on six lymphoma cell lines, the “percentage of proliferating cells, all tested cell lines” value is “minimal”. Further, in assay [2], the “MG_MID (mean graph midpoint)” value is 0.25 µM. The GI50 in [2] (read-out: GI50 range) was 30 to 31100 nM. The IC50 at bovine brain tubulin amounted to 9200 ± 400 nM.
As for `COc1ccc(Cn2ccc3c2-c2oncc2CCC3)cc1` [Compound 56, 9-(4-Methoxybenzyl)-4,5,6,9-tetrahydropyrrolo[2′,3′:3,4]cyclohepta[1,2-d][1,2]oxazole], the activity at 1 µM turned out to be 127% in [1]; 109% in the assay on MINO (MCL); 110% in the assay on VL51 (MZL); 110% in the assay with VL51 ibrutinib-resistant; 123% with HBL1 (ABC DLBCL); 74.6% in the assay with SU-DHL-10 (GCB DLBCL). Also, on bovine brain tubulin, the IC50 is 8200 ± 500 nM.
As for `COc1ccc(OC)c(Cn2ccc3c2-c2oncc2CCC3)c1` [Compound 57, 9-(2,5-Dimethoxybenzyl)-4,5,6,9-tetrahydropyrrolo[2′,3′:3,4]cyclohepta[1,2-d][1,2]oxazole], the activity at 1 µM stood at 34.3% in assay [1]; 8.5% with MINO (MCL); 36.5% in the assay on VL51 (MZL); 37% with VL51 ibrutinib-resistant; 29.6% with HBL1 (ABC DLBCL); 11% in the assay with SU-DHL-10 (GCB DLBCL). Further, the IC50 was found to be 400 nM in the assay on MINO (MCL) (MTT); 200 nM in the assay on VL51 (MZL) (MTT); 600 nM with HBL1 (ABC DLBCL) (MTT); 300 nM in the assay with SU-DHL-10 (GCB DLBCL) (MTT); 3200 ± 60 nM at bovine brain tubulin. At tubulin colchicine site, the inhibition at 5 µM amounted to 38 ± 0.7%.
Regarding `COc1cc(Cn2ccc3c2-c2oncc2CCC3)cc(OC)c1` [Compound 58, 9-(3,5-Dimethoxybenzyl)-4,5,6,9-tetrahydropyrrolo[2′,3′:3,4]cyclohepta[1,2-d][1,2]oxazole], the activity at 1 µM in assay [1] stood at 78.4%; in the assay on MINO (MCL), 101%; in the assay on VL51 (MZL), 84%; with VL51 ibrutinib-resistant, 73%; with HBL1 (ABC DLBCL) it was 114%; in the assay on SU-DHL-10 (GCB DLBCL), 72.4%. Besides, the inhibition at 5 µM at tubulin colchicine site is 25 ± 3%. The half-maximal inhibitory concentration (IC50) at bovine brain tubulin was found to be 5700 ± 1000 nM.
Consider `CCc1cc(-c2oncc2-c2ccc(OC)cc2)c(O)cc1OC` [KRIBB3], for which the “reduction of tumor growth” value in the assay on tumor growth is listed as 50–70%.
Take `CC[C@]1(O)C[C@H]2CN(CCc3c([nH]c4ccccc34)[C@@](C(=O)OC)(c3cc4c(cc3OC)N(C=O)[C@H]3[C@@](O)(C(=O)OC)[C@H](OC(C)=O)[C@]5(CC)C=CCN6CC[C@]43[C@@H]65)C2)C1` [vincristine, reference compound]: the GI50 in [3] amounted to 7500 ± 3100 nM; in assay [4] it was 1200 ± 600 nM.
